Values after ≈ are worked out from the molar mass of the structure shown.
How the values were obtained:
C. jejuni 81–176 = test: Copper sulfate sensitivity dose–response assay in vitro (MIC/MBC); format: cell-based, Campylobacter jejuni; settings: for MBC / MIC: Campylobacter jejuni, 0.5 mM CuSO4, head displaced; for MBC: read-out: MBC, C. jejuni (Table S5); for MIC: read-out: MIC, C. jejuni (Table S4); for C. jejuni 81–176 in vitro MBC: minimal bactericidal concentration in presence of 0.5 mM CuSO4; for C. jejuni 81–176 in vitro MIC: minimal bacteriostatic concentration in presence of 0.5 mM CuSO4
Description: (§1) In total, 19 SMs were two-fold serially diluted to obtain a final SM concentration ranging from 6.25 to 0.012 μg/mL. C. jejuni 81–176 was then treated with a determined concentration of SM, as described in the copper sensitivity assay. […] The lowest bactericidal SM concentration was considered the MBC (no increase in OD600 over time and no viable cells were recovered on agar plate after challenge) (N = 3 replicates per SM). […] However, these SMs were two-fold serially diluted to obtain a final SM concentration ranging from 5 μg to 0.0625 μg for testing (N = two independent experiments with four technical replicate for each SM).

[1] = system: intracellular C. jejuni 81–176 in Caco-2 cells; test: Copper sulfate sensitivity dose–response assay in infected Caco-2 colon epithelial cells; format: cell-based, Campylobacter jejuni; settings: infected Caco-2 cells, 24 h, 0.5 mM CuSO4
Description: The intracellular reduction in C. jejuni in the presence of a given SM (T1-T8) and 0.5 mM CuSO4 were evaluated using Caco-2 cells, as previously described ([Kumar et al., 2016]; [Deblais et al., 2019]). In brief, cells were infected for 2 h using a multiplicity of infection (MOI) of 100. Infected cells were treated with SM at a final concentration ranging between 5 and 0.315 μg/mL and incubated at 37°C for 24 h in a humidified 5% CO2 incubator. Following incubation, cells were washed once with 1X PBS, lysed with 0.1% Triton-100X, serially 10-fold diluted in 1X PBS, and plated on MH agar plate. Plates were incubated in microaerophilic conditions at 42°C for 24 h, to determine the intracellular survival. Cells not infected and not treated and cells infected and treated with 1% DMSO were used as controls (N = two independent experiments with four technical replicate for each SM).

C. jejuni Au-38 = test: Copper sulfate sensitivity dose–response assay in vitro (MIC/MBC); format: cell-based; settings: Campylobacter jejuni; for MIC: AU38, read-out: MIC, Au-38 (Table S4); for MBC: AU38, 0.5 mM CuSO4, read-out: MBC, Au-38 (Table S5)
Description: (§2) Campylobacter jejuni 81–176 was the primary model strain used for the selection of the potential Tat-dependent inhibitors by high-throughput screening. C. jejuni 81–176 is resistant to 0.5 and 1 mM CuSO4 (Supplementary Figure S1). C. jejuni 81–176 tatC knockout mutant (C. jejuni ΔtatC) was used to confirm the Tat-dependent inhibitory effect of the selected SM. C. jejuni ΔtatC is susceptible to 0.5 mM and higher of CuSO4 ([Rajashekara et al., 2009]). The specificity of the Tat-dependent inhibitors was also tested on 11 additional Campylobacter strains (C. coli ATCC33559 and 10 other C. jejuni strains isolated from chickens) and 7 commensal/beneficial bacteria (Supplementary Table S1). The […] (Au-13, Au-20, Au-38, Au-39, Au-47, Au-50, Au-24, Au-32, Au-44, and Au-45) were selected based on their single nucleotide polymorphism (SNP)-type and percent of prevalence in chickens ([Merchant-Patel et al., 2008]; [Kumar et al., 2016]). Additional details about the bacterial strains are shown in Supplementary Table S1.
as §1

C. jejuni Au-24 = test: as above; format: cell-based; settings: Campylobacter jejuni; for MIC: AU24, read-out: MIC, Au-24 (Table S4); for MBC: AU24, 0.5 mM CuSO4, read-out: MBC, Au-24 (Table S5)
Description: as §2, §1

C. coli ATCC33559 = test: as above; format: cell-based; settings: Campylobacter coli; for MIC: ATCC33559, read-out: MIC, C. coli (Table S4); for MBC: ATCC33559, 0.5 mM CuSO4, read-out: MBC, C. coli (Table S5)
Description: as §2, §1

C. jejuni Au-44 = test: as above; format: cell-based; settings: Campylobacter jejuni; for MIC: AU44, read-out: MIC, Au-44 (Table S4); for MBC: AU44, 0.5 mM CuSO4, read-out: MBC, Au-44 (Table S5)
Description: as §2, §1

C. jejuni Au-13 = test: as above; format: cell-based; settings: Campylobacter jejuni; for MIC: AU13, read-out: MIC, Au-13 (Table S4); for MBC: AU13, 0.5 mM CuSO4, read-out: MBC, Au-13 (Table S5)
Description: as §2, §1

C. jejuni Au-39 = test: as above; format: cell-based; settings: Campylobacter jejuni; for MIC: AU39, read-out: MIC, Au-39 (Table S4); for MBC: AU39, 0.5 mM CuSO4, read-out: MBC, Au-39 (Table S5)
Description: as §2, §1

C. jejuni Au-32 = test: as above; format: cell-based; settings: Campylobacter jejuni; for MIC: AU32, read-out: MIC, Au-32 (Table S4); for MBC: AU32, 0.5 mM CuSO4, read-out: MBC, Au-32 (Table S5)
Description: as §2, §1

C. jejuni Au-45 = test: as above; format: cell-based; settings: Campylobacter jejuni; for MIC: AU45, read-out: MIC, Au-45 (Table S4); for MBC: AU45, 0.5 mM CuSO4, read-out: MBC, Au-45 (Table S5)
Description: as §2, §1

C. jejuni Au-50 = test: as above; format: cell-based; settings: Campylobacter jejuni; for MIC: AU50, read-out: MIC, Au-50 (Table S4); for MBC: AU50, 0.5 mM CuSO4, read-out: MBC, Au-50 (Table S5)
Description: as §2, §1

C. jejuni Au-20 = test: as above; format: cell-based; settings: Campylobacter jejuni; for MIC: AU20, read-out: MIC, Au-20 (Table S4); for MBC: AU20, 0.5 mM CuSO4, read-out: MBC, Au-20 (Table S5)
Description: as §2, §1

C. jejuni Au-47 = test: as above; format: cell-based; settings: Campylobacter jejuni; for MIC: AU47, read-out: MIC, Au-47 (Table S4); for MBC: AU47, 0.5 mM CuSO4, read-out: MBC, Au-47 (Table S5)
Description: as §2, §1

[2] = system: Campylobacter spp. (12 strains); test: Activity spectrum against Campylobacter strains at 6.25 μg/mL with 0.5 mM CuSO4; format: cell-based, Campylobacter jejuni, Campylobacter coli; settings: 6.25 μg/mL SM
[3] = system: Commensal/beneficial gut bacteria (n = 7); test: Activity spectrum against commensal/beneficial gut bacteria at 6.25 μg/mL; format: cell-based; settings: 6.25 μg/mL SM; for Commensal/beneficial gut bacteria inhibited at 6.25 μg/mL (species): Ef Enterococcus faecalis, Lb Levilactobacillus brevis, LGG Lacticaseibacillus rhamnosus GG
Description: A similar experiment was performed with seven commensal/beneficial gut bacteria to determine species specificity of these SMs. In brief, an overnight suspension was normalized at 0.05 OD600 using the appropriate medium and challenged with 6.25 μg/mL of SM. Details about the strains and their growing conditions are shown in Supplementary Table S1. Medium alone and 1% DMSO were used as controls (N = 3 replicates per SM).

FDH = settings: 1 mM of azide; ref Davies, 2017; cited from earlier work

| Compound | MBC (C. jejuni 81–176) [µg/mL] | MIC (C. jejuni 81–176) [µg/mL] | C. jejuni 81–176 in vitro MBC (C. jejuni 81–176) [µg/mL] | C. jejuni 81–176 in vitro MIC (C. jejuni 81–176) [µg/mL] | MIC (C. jejuni Au-38) [µg/mL] | MBC (C. jejuni Au-38) [µg/mL] | MIC (C. jejuni Au-24) [µg/mL] | MBC (C. jejuni Au-24) [µg/mL] | MIC (C. coli ATCC33559) [µg/mL] | MBC (C. coli ATCC33559) [µg/mL] | MIC (C. jejuni Au-44) [µg/mL] | MBC (C. jejuni Au-44) [µg/mL] | MIC (C. jejuni Au-13) [µg/mL] | MBC (C. jejuni Au-13) [µg/mL] | MIC (C. jejuni Au-39) [µg/mL] | MBC (C. jejuni Au-39) [µg/mL] | MIC (C. jejuni Au-32) [µg/mL] | MBC (C. jejuni Au-32) [µg/mL] | MIC (C. jejuni Au-45) [µg/mL] | MBC (C. jejuni Au-45) [µg/mL] | also measured |
| --- | --- | --- | --- | --- | --- | --- | --- | --- | --- | --- | --- | --- | --- | --- | --- | --- | --- | --- | --- | --- | --- |
| CN(C)c1ccc(C(=O)Nc2ccc(CN3CCS(=O)(=O)CC3)cc2)cc1 [T3] | > 5 | 0.04 (≈ 0.103 µM) | >5 | 0.04 | 6.25 (≈ 16.1 µM) | > 5 | 6.25 (≈ 16.1 µM) | > 5 | 1 (≈ 2.58 µM) | > 5 | 6.25 (≈ 16.1 µM) | > 5 | 6.25 (≈ 16.1 µM) | > 5 | 6.25 (≈ 16.1 µM) | > 5 | 6.25 (≈ 16.1 µM) | > 5 | 6.25 (≈ 16.1 µM) | > 5 | C. jejuni 81–176 MBC in Caco2 cells [1]: 5 µg/mL; MIC (C. jejuni Au-50): 6.25 µg/mL (≈ 16.1 µM); MBC (C. jejuni Au-50): > 5 µg/mL; MIC (C. jejuni Au-20): 6.25 µg/mL (≈ 16.1 µM); MBC (C. jejuni Au-20): > 5 µg/mL; MIC (C. jejuni Au-47): 6.25 µg/mL (≈ 16.1 µM); MBC (C. jejuni Au-47): > 5 µg/mL; Growth inhibition at 6.25 μg/mL, Campylobacter spp. (strains inhibited/tested) [2]: 12/12; Growth inhibition at 6.25 μg/mL, Commensal/beneficial gut bacteria (strains inhibited/tested) [3]: 2/7; Commensal/beneficial gut bacteria inhibited at 6.25 μg/mL (species) [3]: LGG and Ef |
| CCc1ccnc(NS(=O)(=O)c2ccc(C)c(Cl)c2)c1 [T4] | > 5 | 0.01 (≈ 0.0322 µM) | >5 | 0.01 | 6.25 (≈ 20.1 µM) | > 5 | 6.25 (≈ 20.1 µM) | > 5 | 6.25 (≈ 20.1 µM) | > 5 | 6.25 (≈ 20.1 µM) | > 5 | 0.62 (≈ 1.99 µM) | > 5 | 6.25 (≈ 20.1 µM) | > 5 | 6.25 (≈ 20.1 µM) | > 5 | 6.25 (≈ 20.1 µM) | > 5 | MIC (C. jejuni Au-50): 0.31 µg/mL (≈ 0.997 µM); MBC (C. jejuni Au-50): > 5 µg/mL; MIC (C. jejuni Au-20): 0.62 µg/mL (≈ 1.99 µM); MBC (C. jejuni Au-20): > 5 µg/mL; MIC (C. jejuni Au-47): 0.62 µg/mL (≈ 1.99 µM); MBC (C. jejuni Au-47): > 5 µg/mL; Growth inhibition at 6.25 μg/mL, Campylobacter spp. (strains inhibited/tested) [2]: 12/12; Growth inhibition at 6.25 μg/mL, Commensal/beneficial gut bacteria (strains inhibited/tested) [3]: 1/7; Commensal/beneficial gut bacteria inhibited at 6.25 μg/mL (species) [3]: Ef |
| CCOC(=O)C1CCN(CC(=O)Nc2cccc3cccnc23)CC1 [T5] | 0.04 (≈ 0.117 µM) | 0.01 (≈ 0.0293 µM) | 0.04 | 0.01 | 2.5 (≈ 7.32 µM) | 5 (≈ 14.6 µM) | 2.5 (≈ 7.32 µM) | 5 (≈ 14.6 µM) | 0.02 (≈ 0.0586 µM) | 0.04 (≈ 0.117 µM) | 2.5 (≈ 7.32 µM) | 5 (≈ 14.6 µM) | 0.62 (≈ 1.82 µM) | 1.24 (≈ 3.63 µM) | 5 (≈ 14.6 µM) | > 5 | 5 (≈ 14.6 µM) | > 5 | 5 (≈ 14.6 µM) | > 5 | MIC (C. jejuni Au-50): 5 µg/mL (≈ 14.6 µM); MBC (C. jejuni Au-50): > 5 µg/mL; MIC (C. jejuni Au-20): 2.5 µg/mL (≈ 7.32 µM); MBC (C. jejuni Au-20): 5 µg/mL (≈ 14.6 µM); MIC (C. jejuni Au-47): 2.5 µg/mL (≈ 7.32 µM); MBC (C. jejuni Au-47): 5 µg/mL (≈ 14.6 µM); Growth inhibition at 6.25 μg/mL, Campylobacter spp. (strains inhibited/tested) [2]: 12/12; Growth inhibition at 6.25 μg/mL, Commensal/beneficial gut bacteria (strains inhibited/tested) [3]: 1/7; Commensal/beneficial gut bacteria inhibited at 6.25 μg/mL (species) [3]: Ef |
| CC(C)n1c(S)nc2c1c(=O)[nH]c(=O)n2C [T6] | 2.5 (≈ 10.4 µM) | 1.25 (≈ 5.2 µM) | 2.5 | 1.25 | 1.25 (≈ 5.2 µM) | 2.5 (≈ 10.4 µM) | 1.25 (≈ 5.2 µM) | 2.5 (≈ 10.4 µM) | 1.25 (≈ 5.2 µM) | 2.5 (≈ 10.4 µM) | 1.25 (≈ 5.2 µM) | 2.5 (≈ 10.4 µM) | 1.25 (≈ 5.2 µM) | 2.5 (≈ 10.4 µM) | 1.25 (≈ 5.2 µM) | 2.5 (≈ 10.4 µM) | 1.25 (≈ 5.2 µM) | 2.5 (≈ 10.4 µM) | 1.25 (≈ 5.2 µM) | 2.5 (≈ 10.4 µM) | MIC (C. jejuni Au-50): 1.25 µg/mL (≈ 5.2 µM); MBC (C. jejuni Au-50): 2.5 µg/mL (≈ 10.4 µM); MIC (C. jejuni Au-20): 1.25 µg/mL (≈ 5.2 µM); MBC (C. jejuni Au-20): 2.5 µg/mL (≈ 10.4 µM); MIC (C. jejuni Au-47): 1.25 µg/mL (≈ 5.2 µM); MBC (C. jejuni Au-47): 2.5 µg/mL (≈ 10.4 µM); Growth inhibition at 6.25 μg/mL, Campylobacter spp. (strains inhibited/tested) [2]: 12/12; Growth inhibition at 6.25 μg/mL, Commensal/beneficial gut bacteria (strains inhibited/tested) [3]: 0/7 |
| [N-]=[N+]=[N-] [azide] | – | – | – | – | – | – | – | – | – | – | – | – | – | – | – | – | – | – | – | – | inhibition of FDH activity (FDH): 30% |

From PMC11061419, “Identification of novel small molecule inhibitors of twin arginine translocation (Tat) pathway and their effect on the control of Campylobacter jejuni in chickens” (Frontiers in Microbiology, 2024)
